Measurements from patent US20080312255A1 (ASTRAZENECA AB, priority 2007, published 2008).

Target: S. aureus GyrB ATPase (Staphylococcus aureus, UniProt P0A0K8)
Test: S. aureus GyrB ATPase inhibition (ammonium molybdate/malachite green phosphate detection)
Type: biochemical
Details: compound concentration of 1 μM
Method: S. aureus GyrB ATPase Inhibition Activity: Compounds may be tested for inhibition of S. aureus GyrB ATPase activity using an ammonium molybdate/malachite green-based phosphate detection assay (Lanzetta, P. A., L. J. Alvarez, P. S. Reinach, and O. A. Candia, 1979, 100: 95-97). Assays can be performed in multiwell plates in 30 μl reactions containing: 50 mM Hepes buffer pH 7.5, 75 mM ammonium acetate, 8.0 mM magnesium chloride, 0.5 mM ethylenediaminetetraacetic acid, 5% glycerol, 1.0 mM 1,4-Dithio-DL-threitol, 200 nM bovine serum albumin, 1.0 μg/ml sheared salmon sperm DNA, 250 pM E. coli GyrA, 250 pM S. aureus GyrB, 250 μM ATP, and compound in dimethylsulfoxide. Reactions can be quenched with […] of ammonium molybdate/malachite green detection reagent containing 1.2 mM malachite green hydrochloride, 8.5 mM ammonium molybdate tetrahydrate, and 1 M hydrochloric acid. Plates can be read in an absorbance plate reader at 650 nm and percent inhibition values can be calculated using dimethylsulfoxide (2%)-containing reactions as 0% inhibition and EDTA-containing ([…]) reactions as 100% inhibition controls. An IC50 measurement of compound potency for each compound can be determined from reactions performed in the presence of 10 different compound concentrations.
Compounds of the invention were tested in an assay substantially similar to the assay described above for measuring the inhibition of S. aureus GyrB ATPase. Percent inhibition of S. aureus GyrB ATPase at a compound concentration of 1 μM (unless otherwise noted) is disclosed in the following table: […]

Sequence of S. aureus GyrB ATPase (P0AES4 whole entry): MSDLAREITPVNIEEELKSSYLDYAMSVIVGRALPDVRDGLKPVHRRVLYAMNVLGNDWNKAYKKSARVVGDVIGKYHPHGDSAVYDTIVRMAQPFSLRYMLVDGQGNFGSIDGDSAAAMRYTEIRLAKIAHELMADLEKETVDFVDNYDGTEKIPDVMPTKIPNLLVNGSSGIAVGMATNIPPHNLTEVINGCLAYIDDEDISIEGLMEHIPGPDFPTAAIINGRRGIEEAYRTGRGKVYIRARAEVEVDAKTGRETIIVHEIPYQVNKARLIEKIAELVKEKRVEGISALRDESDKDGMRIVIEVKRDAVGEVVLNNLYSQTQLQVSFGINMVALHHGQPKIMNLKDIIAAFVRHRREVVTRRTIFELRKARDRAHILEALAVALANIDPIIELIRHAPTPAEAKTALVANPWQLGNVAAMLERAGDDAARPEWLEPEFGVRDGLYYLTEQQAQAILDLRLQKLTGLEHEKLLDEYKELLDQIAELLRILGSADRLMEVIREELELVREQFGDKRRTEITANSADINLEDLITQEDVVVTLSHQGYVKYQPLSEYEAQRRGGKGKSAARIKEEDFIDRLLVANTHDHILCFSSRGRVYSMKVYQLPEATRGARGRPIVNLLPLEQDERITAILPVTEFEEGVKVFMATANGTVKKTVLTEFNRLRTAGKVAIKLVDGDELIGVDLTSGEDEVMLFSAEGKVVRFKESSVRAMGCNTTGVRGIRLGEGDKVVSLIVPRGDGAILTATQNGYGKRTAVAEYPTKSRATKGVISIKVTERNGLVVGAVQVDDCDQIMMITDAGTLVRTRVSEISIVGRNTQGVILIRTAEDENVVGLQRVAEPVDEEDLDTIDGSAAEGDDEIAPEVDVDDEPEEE
Sequence of S. aureus GyrB ATPase (P0A0K8 whole entry): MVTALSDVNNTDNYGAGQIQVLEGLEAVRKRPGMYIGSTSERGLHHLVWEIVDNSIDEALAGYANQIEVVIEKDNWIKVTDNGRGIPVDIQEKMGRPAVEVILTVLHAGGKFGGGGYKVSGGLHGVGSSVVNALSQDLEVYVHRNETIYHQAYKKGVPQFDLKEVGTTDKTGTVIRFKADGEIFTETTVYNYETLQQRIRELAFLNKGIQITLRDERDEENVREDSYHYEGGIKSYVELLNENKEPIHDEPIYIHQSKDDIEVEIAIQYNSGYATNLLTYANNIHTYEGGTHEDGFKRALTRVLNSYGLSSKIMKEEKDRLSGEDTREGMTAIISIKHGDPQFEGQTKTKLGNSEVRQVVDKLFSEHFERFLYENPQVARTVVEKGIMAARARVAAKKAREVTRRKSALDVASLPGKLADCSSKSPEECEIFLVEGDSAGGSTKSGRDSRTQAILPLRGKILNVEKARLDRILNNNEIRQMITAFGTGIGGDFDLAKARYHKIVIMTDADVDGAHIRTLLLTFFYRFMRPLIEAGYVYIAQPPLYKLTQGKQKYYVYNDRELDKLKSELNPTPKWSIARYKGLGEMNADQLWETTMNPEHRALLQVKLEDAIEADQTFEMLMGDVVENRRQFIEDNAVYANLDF

Q: For `COCn1ccnc1-c1nc(N2CC[C@@H](NC(=O)c3[nH]c(C)c(Cl)c3Cl)[C@@H](OC)C2)sc1C(=O)OC` [Example 58, methyl 2-((3S,4R)-4-{[(3,4-dichloro-5-methyl-1H-pyrrol-2-yl)carbonyl]amino}-3-methoxypiperidin-1-yl)-4-[1-(methoxymethyl)-1H-imidazol-2-yl]-1,3-thiazole-5-carboxylate], which inhibition at 1 µM is on record?
A: 99.5%

Q: For `COCn1ccnc1-c1nc(N2CC[C@@H](NC(=O)c3[nH]c(C)c(Cl)c3Cl)[C@@H](F)C2)sc1C(=O)OC` [Example 59], which inhibition at 1 µM is on record?
A: 100%

Q: Which inhibition at 1 µM does the source give for `COC(=O)c1sc(N2CC[C@@H](NC(=O)c3[nH]c(C)c(Cl)c3Cl)[C@@H](OC)C2)nc1-c1ccno1` [Example 60] here?
A: 104%

Q: With `COC(=O)c1sc(N2CC[C@@H](NC(=O)c3[nH]c(C)c(Cl)c3Cl)[C@@H](F)C2)nc1-c1ccno1` [Example 61] as the compound, how does the inhibition at 1 µM read?
A: 94.7%

Q: Which inhibition at 1 µM does the source give for `COC(=O)c1sc(N2CC[C@@H](NC(=O)c3[nH]c(C)c(Cl)c3Cl)[C@@H](OC)C2)nc1-c1ccn[nH]1` [Example 62] here?
A: 99.9%

Q: How did the inhibition at 1 µM turn out when `COC(=O)c1sc(N2CC[C@@H](NC(=O)c3[nH]c(C)c(Cl)c3Cl)[C@@H](F)C2)nc1-c1ccn[nH]1` [Example 63] was run?
A: 99.8%

Q: Which inhibition at 1 µM does the source give for `COCCn1ccnc1-c1nc(N2CC[C@@H](NC(=O)c3[nH]c(C)c(Cl)c3Cl)[C@@H](OC)C2)sc1C(=O)OC` [Example 64] here?
A: 96.2%

Q: With `COCCn1ccnc1-c1nc(N2CC[C@@H](NC(=O)c3[nH]c(C)c(Cl)c3Cl)[C@@H](F)C2)sc1C(=O)OC` [Example 65] as the compound, how does the inhibition at 1 µM read?
A: 98.3%

Q: How did the inhibition at 1 µM turn out when `COC(=O)c1sc(N2CC[C@@H](NC(=O)c3[nH]c(C)c(Cl)c3Cl)[C@@H](OC)C2)nc1-c1ncnn1C` [Example 66] was run?
A: 101%

Q: With `COC(=O)c1sc(N2CC[C@@H](NC(=O)c3[nH]c(C)c(Cl)c3Cl)[C@@H](F)C2)nc1-c1ncnn1C` [Example 67] as the compound, how does the inhibition at 1 µM read?
A: 75.2%

Q: `COC(=O)c1sc(N2CC[C@@H](NC(=O)c3cc(C#N)c(C)[nH]3)[C@@H](OC)C2)nc1-c1ncnn1C` [Example 68] was tested. Which inhibition at 1 µM did it give?
A: 97%

Q: How did the inhibition at 1 µM turn out when `COCCn1ccnc1-c1nc(N2CC[C@@H](NC(=O)c3[nH]c(C)c(C#N)c3Cl)[C@@H](OC)C2)sc1C(=O)OC` [Example 69] was run?
A: 100%

Q: `COC(=O)c1sc(N2CC[C@@H](NC(=O)c3[nH]c(C)c(Cl)c3Cl)[C@@H](OC)C2)nc1-c1nc(C)c(C)n1C` [Example 70] was tested. Which inhibition at 1 µM did it give?
A: 99.5%

Q: How did the inhibition at 1 µM turn out when `COC(=O)c1sc(N2CC[C@@H](NC(=O)c3[nH]c(C)c(Cl)c3Cl)[C@@H](OC)C2)nc1-c1csc(N)n1` [Example 71] was run?
A: 101%

Q: With `CNc1nc(-c2nc(N3CC[C@@H](NC(=O)c4[nH]c(C)c(Cl)c4Cl)[C@@H](OC)C3)sc2C(=O)OC)cs1` [Example 72] as the compound, how does the inhibition at 1 µM read?
A: 101%

Q: How did the inhibition at 1 µM turn out when `COC(=O)c1sc(N2CC[C@@H](NC(=O)c3[nH]c(C)c(Cl)c3Cl)[C@@H](OC)C2)nc1-c1csc(N(C)C)n1` [Example 73] was run?
A: 99.9%

Q: With `COC(=O)c1sc(N2CC[C@@H](NC(=O)c3[nH]c(C)c(Cl)c3Cl)[C@@H](F)C2)nc1-c1csc(N)n1` [Example 74] as the compound, how does the inhibition at 1 µM read?
A: 100%

Q: How did the inhibition at 1 µM turn out when `CNc1nc(-c2nc(N3CC[C@@H](NC(=O)c4[nH]c(C)c(Cl)c4Cl)[C@@H](F)C3)sc2C(=O)OC)cs1` [Example 75] was run?
A: 93.1%

Q: With `COC(=O)c1sc(N2CC[C@@H](NC(=O)c3[nH]c(C)c(Cl)c3Cl)[C@@H](F)C2)nc1-c1csc(N(C)C)n1` [Example 76] as the compound, how does the inhibition at 1 µM read?
A: 99.2%

Q: `CCOC(=O)c1sc(N2CC[C@@H](NC(=O)c3[nH]c(C)c(Cl)c3Cl)[C@@H](OC)C2)nc1-c1cn(C)cn1` [Example 77] was tested. Which inhibition at 1 µM did it give?
A: 100%

Q: How did the inhibition at 1 µM turn out when `CCOC(=O)c1sc(N2CC[C@@H](NC(=O)c3[nH]c(C)c(Cl)c3Cl)[C@@H](F)C2)nc1-c1cn(C)cn1` [Example 78] was run?
A: 101%

Q: How did the inhibition at 1 µM turn out when `COC(=O)c1sc(N2CC[C@@H](NC(=O)c3[nH]c(C)c(Cl)c3Cl)[C@@H](F)C2)nc1-c1nccn1C` [Example 79] was run?
A: 101%

Q: With `COC(=O)c1sc(N2CC[C@@H](NC(=O)c3[nH]c(C)c(C#N)c3Cl)[C@@H](OC)C2)nc1-c1ncnn1C` [Example 80] as the compound, how does the inhibition at 1 µM read?
A: 99.7%

Q: `CCOC(=O)c1sc(N2CC[C@@H](NC(=O)c3[nH]c(C)c(Cl)c3Cl)[C@@H](OC)C2)nc1-c1ccncn1` [Example 81] was tested. Which inhibition at 1 µM did it give?
A: 100%

Q: With `COC(=O)c1sc(N2CC[C@@H](NC(=O)c3[nH]c(C)c(Cl)c3Cl)[C@@H](OC)C2)nc1-c1nccc(OC)n1` [Example 82] as the compound, how does the inhibition at 1 µM read?
A: 103%

Q: With `CCOC(=O)c1sc(N2CC[C@@H](NC(=O)c3[nH]c(C)c(Cl)c3Cl)[C@@H](OC)C2)nc1-c1nnco1` [Example 83] as the compound, how does the inhibition at 1 µM read?
A: 102%

Q: `CCOC(=O)c1sc(N2CC[C@@H](NC(=O)c3[nH]c(C)c(Cl)c3Cl)[C@@H](OC)C2)nc1-c1nc(C)no1` [Example 84] was tested. Which inhibition at 1 µM did it give?
A: 103%

Q: For `CCOC(=O)c1sc(N2CC[C@@H](NC(=O)c3[nH]c(C)c(Cl)c3Cl)[C@@H](OC)C2)nc1-c1nnc(C)o1` [Example 85, Ethyl 2-((3S,4R)-4-{[(3,4-dichloro-5-methyl-1H-pyrrol-2-yl)carbonyl]amino}-3-methoxypiperidin-1-yl)-4-(5-methyl-1,3,4-oxadiazol-2-yl)-1,3-thiazole-5-carboxylate], which inhibition at 1 µM is on record?
A: 102%

Q: Which inhibition at 1 µM does the source give for `COC(=O)c1sc(N2CC[C@@H](NC(=O)c3[nH]c(C)c(Cl)c3Cl)[C@@H](OC)C2)nc1-c1ncc[nH]1` [Example 86, Methyl 2-((3S,4R)-4-{[(3,4-dichloro-5-methyl-1H-pyrrol-2-yl)carbonyl]amino}-3-methoxypiperidin-1-yl)-4-(1H-imidazol-2-yl)-1,3-thiazole-5-carboxylate] here?
A: 99.9%

Q: For `COC(=O)c1sc(N2CC[C@@H](NC(=O)c3[nH]c(C)c(Cl)c3Cl)[C@@H](F)C2)nc1-c1ncc[nH]1` [Example 87], which inhibition at 1 µM is on record?
A: 71%

Q: With `CO[C@H]1CN(c2nc(-c3nnc(C)o3)c(C(=O)O)s2)CC[C@H]1NC(=O)c1[nH]c(C)c(Cl)c1Cl` [Example 90, 2-((3S,4R)-4-{[(3,4-Dichloro-5-methyl-1H-pyrrol-2-yl)carbonyl]amino}-3-methoxypiperidin-1-yl)-4-(5-methyl-1,3,4-oxadiazol-2-yl)-1,3-thiazole-5-carboxylic acid] as the compound, how does the inhibition at 1 µM read?
A: 101%

Q: For `COC(=O)c1sc(N2CC[C@@H](NC(=O)c3[nH]c(C)c(Cl)c3Cl)[C@@H](OC)C2)nc1-c1cn(C)nn1` [Example 92, methyl 2-((3S,4R)-4-(3,4-dichloro-5-methyl-1H-pyrrole-2-carboxamido)-3-methoxypiperidin-1-yl)-4-(1-methyl-1H-1,2,3-triazol-4-yl)thiazole-5-carboxylate], which inhibition at 1 µM is on record?
A: 100%

Q: With `COC(=O)c1sc(N2CC[C@@H](NC(=O)c3[nH]c(C)c(Cl)c3Cl)[C@@H](OC)C2)nc1-c1ncc(C)nc1C` [Example 93, methyl 2-((3S,4R)-4-(3,4-dichloro-5-methyl-1H-pyrrole-2-carboxamido)-3-methoxypiperidin-1-yl)-4-(3,5-dimethylpyrazin-2-yl)thiazole-5-carboxylate] as the compound, how does the inhibition at 1 µM read?
A: 99.3%

Q: How did the inhibition at 1 µM turn out when `COC(=O)c1sc(N2CC[C@@H](NC(=O)c3[nH]c(C)c(Cl)c3Cl)[C@@H](OC)C2)nc1-c1cccc(OC)n1` [Example 94, methyl 2-((3S,4R)-4-(3,4-dichloro-5-methyl-1H-pyrrole-2-carboxamido)-3-methoxypiperidin-1-yl)-4-(6-methoxypyridin-2-yl)thiazole-5-carboxylate] was run?
A: 106%
